Results: BindingDB's records for patent US20250313563 (The Broad Institute, 2025)
“And” between values parts separate entries of the source, which are not always exact repeats. Identical values can stand only once.

Tests used:
[1] = target: Glycogen synthase kinase-3 alpha (Homo sapiens, UniProt P49840); test: TR-FRET Assay
Summary of the method: (§1)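 Enzyme and test compound were first incubated together for 30 minutes in assay buffer. The kinase reaction followed and was stopped with EDTA. The pSer641 signal was read by time-resolved FRET.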

[2] = target: Glycogen synthase kinase-3 beta (Homo sapiens, UniProt P49841); test: TR-FRET Assay
Chain of Glycogen synthase kinase-3 beta (P49841 whole entry): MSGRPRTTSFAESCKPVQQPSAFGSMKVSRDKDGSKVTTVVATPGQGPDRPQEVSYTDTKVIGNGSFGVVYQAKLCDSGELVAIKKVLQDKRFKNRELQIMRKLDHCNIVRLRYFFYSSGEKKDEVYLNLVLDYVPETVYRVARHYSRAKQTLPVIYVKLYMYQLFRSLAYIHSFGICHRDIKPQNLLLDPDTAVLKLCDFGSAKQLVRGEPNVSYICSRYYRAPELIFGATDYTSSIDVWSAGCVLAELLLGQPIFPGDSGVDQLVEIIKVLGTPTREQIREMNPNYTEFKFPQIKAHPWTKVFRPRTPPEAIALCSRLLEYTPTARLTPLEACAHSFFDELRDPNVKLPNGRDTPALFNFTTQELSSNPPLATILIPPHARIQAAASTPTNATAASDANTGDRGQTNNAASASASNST
Summary of the method: as §1

Chain of Glycogen synthase kinase-3 alpha (P49840 whole entry): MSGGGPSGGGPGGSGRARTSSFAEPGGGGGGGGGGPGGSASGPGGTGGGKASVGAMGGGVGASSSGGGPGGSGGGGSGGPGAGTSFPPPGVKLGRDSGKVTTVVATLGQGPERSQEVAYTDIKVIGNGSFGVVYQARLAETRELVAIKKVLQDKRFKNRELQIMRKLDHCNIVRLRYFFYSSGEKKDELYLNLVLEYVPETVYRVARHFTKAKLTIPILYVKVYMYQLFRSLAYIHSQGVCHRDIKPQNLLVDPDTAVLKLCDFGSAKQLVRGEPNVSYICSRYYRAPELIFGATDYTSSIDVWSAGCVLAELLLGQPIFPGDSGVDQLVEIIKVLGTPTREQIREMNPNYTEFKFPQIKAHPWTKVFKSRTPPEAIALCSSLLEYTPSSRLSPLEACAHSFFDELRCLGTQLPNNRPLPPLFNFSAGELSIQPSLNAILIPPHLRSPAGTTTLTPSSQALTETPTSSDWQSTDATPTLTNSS

SMILES	IC50 [1]	IC50 [2]
CCC1(c2cccc(C(F)(F)F)c2)C2=CN=NC2NC2=C1C(=O)N(C1=CN=NC1)CC2 (stereo unspecified) [US20250313563, Compound 950479]	< 100 nM	100 to 1000 nM
CCC1(c2cccc(N(C)c3ncccn3)c2)C2=C(CC(C)(C)NC2=O)NC2N=NC(C(F)F)=C21 (stereo unspecified) [US20250313563, Compound 950484]	< 100 nM	< 100 nM
CCC1(c2cccc(C(F)(F)F)c2)C2=CN=NC2NC2=C1C(=O)N(c1nn(C)cc1C)CC2 (stereo unspecified) [US20250313563, Compound 950486]	100 to 1000 nM	1000 to 5000 nM
CC[C@]1(c2cccc(-c3cn(C)nc3C)c2)C2=C(CC(C)(C)NC2=O)NC2N=NC(C(F)F)=C21 (stereo partly specified) [US20250313563, Compound 950490]	100 to 1000 nM	100 to 1000 nM
CC[C@]1(c2cccc(C(C)C)c2)C2=C(CC(C)(C)NC2=O)NC2N=NC(C(F)(F)F)=C21 (stereo partly specified) [US20250313563, Compound 950493]	100 to 1000 nM	100 to 1000 nM
CC[C@@]1(c2cccc(C(C)C)c2)C2=C(CC(C)(C)NC2=O)NC2N=NC(C(F)(F)F)=C21 (stereo partly specified) [US20250313563, Compound 950494]	< 100 nM	< 100 nM and 100 to 1000 nM
CC[C@@]1(c2cccc(-c3cn(C)nc3C)c2)C2=C(CC(C)(C)NC2=O)NC2N=NC(C(F)F)=C21 (stereo partly specified) [US20250313563, Compound 950497]	< 100 nM	< 100 nM and 100 to 1000 nM
CC[C@@]1(c2cccc(-c3ccnc(C(F)F)c3)c2)C2=CN=NC2NC2=C1C(=O)NC(C)(C)C2 (stereo partly specified) [US20250313563, Compound 950561]	< 100 nM	100 to 1000 nM
CC[C@@]1(c2cccc(-c3cnn(C)c3F)c2)C2=CN=NC2NC2=C1C(=O)NC(C)(C)C2 (stereo partly specified) [US20250313563, Compound 950562]	< 100 nM	100 to 1000 nM
CC[C@@]1(c2cccc(-c3cn(C)nc3C(F)(F)F)c2)C2=CN=NC2NC2=C1C(=O)NC(C)(C)C2 (stereo partly specified) [US20250313563, Compound 950563]	< 100 nM	< 100 nM
CC[C@@]1(c2cccc(-c3cnn4c3CC(C)(C)CC4)c2)C2=CN=NC2NC2=C1C(=O)NC(C)(C)C2 (stereo partly specified) [US20250313563, Compound 950564]	< 100 nM	100 to 1000 nM
CC[C@@]1(c2cccc(-c3cnn4cc(F)cc(F)c34)c2)C2=CN=NC2NC2=C1C(=O)NC(C)(C)C2 (stereo partly specified) [US20250313563, Compound 950565]	< 100 nM	100 to 1000 nM
CCC1(c2cccc(C(F)(F)F)c2)C2=CN=NC2NC2=C1C(=O)N(c1cc(C)n(C)n1)CC2 (stereo unspecified) [US20250313563, Compound 950608]	100 to 1000 nM	1000 to 5000 nM
CCC1(c2cccc(C(F)(F)F)c2)C2=CN=NC2NC2=C1C(=O)N(c1cnn(C)c1C)CC2 (stereo unspecified) [US20250313563, Compound 950612]	< 100 nM	1000 to 5000 nM
CCC1(c2cccc(C(F)(F)F)c2)C2=CN=NC2NC2=C1C(=O)N(c1cccs1)CC2 (stereo unspecified) [US20250313563, Compound 950614]	< 100 nM	100 to 1000 nM
CCC1(c2cccc(Oc3ncccn3)c2)C2=C(CC(C)(C)NC2=O)NC2N=NC(F)=C21 (stereo unspecified) [US20250313563, Compound 950615]	< 100 nM	100 to 1000 nM
CCC1(c2cccc(C(F)(F)F)c2)C2=CN=NC2NC2=C1C(=O)N(c1ccsc1)CC2 (stereo unspecified) [US20250313563, Compound 950776]	< 100 nM	100 to 1000 nM
CCC1(c2cccc(C(F)(F)F)c2)C2=CN=NC2NC2=C1C(=O)N(c1cscn1)CC2 (stereo unspecified) [US20250313563, Compound 950777]	< 100 nM	100 to 1000 nM
CCC1(c2cccc(-c3cn(C)nc3C)c2)C2=CN=NC2NC2=C1C(=O)NC1(CCS(=O)(=O)CC1)C2 (stereo unspecified) [US20250313563, Compound 950813]	< 100 nM	100 to 1000 nM

SMILES	IC50 [1]	IC50 [2]
CC1(C)CC(=O)C2=C(NC3=C(CN=N3)C23CCN(S(=O)(=O)C2CC2)CC3)C1F (stereo unspecified) [US20250313563, Compound 950814]	< 100 nM	< 100 nM
CCC1(c2cccc(-c3c(C)nnn3C)c2)C2=C(N=NC2)NC2=C1C(=O)C(C)(C)C2 (stereo unspecified) [US20250313563, Compound 950815]	100 to 1000 nM	1000 to 5000 nM
CC[C@@]1(c2cccc(C3CC3)c2)C2=CN=NC2NC2=C1C(=O)NC(C)(C)C2 (stereo partly specified) [US20250313563, Compound 950817]	> 5000 nM	> 5000 nM
CC[C@@]1(c2cccc(-c3cc(C)nn3C)c2)C2=C(N=NC2)NC2=C1C(=O)C(C)(C)C2 [US20250313563, Compound 950818]	100 to 1000 nM	1000 to 5000 nM
CC[C@]1(c2cccc(-c3cnn(C)c3)c2)C2=C(N=NC2)NC2=C1C(=O)C(C)(C)C2 [US20250313563, Compound 950819]	100 to 1000 nM	1000 to 5000 nM
CC[C@@]1(c2cccc(-c3cnn(-c4ccccc4)c3F)c2)C2=CN=NC2NC2=C1C(=O)NC(C)(C)C2 (stereo partly specified) [US20250313563, Compound 950821]	100 to 1000 nM	1000 to 5000 nM
CC[C@@]1(c2cccc(-c3ccnn3-c3ccc(F)cc3)c2)C2=CN=NC2NC2=C1C(=O)NC(C)(C)C2 (stereo partly specified) [US20250313563, Compound 950822]	100 to 1000 nM	100 to 1000 nM
CC[C@@]1(c2cccc(-c3ccnn3C3CC3(F)F)c2)C2=CN=NC2NC2=C1C(=O)NC(C)(C)C2 (stereo partly specified) [US20250313563, Compound 950824]	< 100 nM and 100 to 1000 nM	< 100 nM and 100 to 1000 nM
CC[C@]1(c2cccc(-c3cc(C)nn3C)c2)C2=C(N=NC2)NC2=C1C(=O)C(C)(C)C2 [US20250313563, Compound 950827]	> 5000 nM	> 5000 nM
CC[C@@]1(c2cccc(C3CC3)c2)C2=CN=NC2NC2=C1C(=O)NC(C)(C)C2 (stereo partly specified) [US20250313563, Compound 950828]	< 100 nM and 1000 to 5000 nM	> 5000 nM
CC[C@@]1(c2cccc(C3=CNN4CC=CN=C34)c2)C2=CN=NC2NC2=C1C(=O)NC(C)(C)C2 (stereo partly specified) [US20250313563, Compound 950830]	< 100 nM	100 to 1000 nM
CC[C@]1(c2cccc(C(F)(F)F)c2)C2=C(N=NC2)NC2=C1C(=O)CC2 [US20250313563, Compound 951565]	< 100 nM	100 to 1000 nM
CC[C@@]1(c2cccc(C(F)(F)F)c2)C2=C(N=NC2)NC2=C1C(=O)CC2 [US20250313563, Compound 951566]	1000 to 5000 nM	> 5000 nM
CC[C@]1(c2cccc(N(C)c3ncccn3)c2)C2=C(CC(C)(C)NC2=O)NC2N=NC(Cl)=C21 (stereo partly specified) [US20250313563, Compound 951592]	> 5000 nM	> 5000 nM
CCC1(c2cccc(C(F)(F)F)c2)C2=CN=NC2NC2=C1C(=O)N(c1ncn(C)c1C)CC2 (stereo unspecified) [US20250313563, Compound 951598]	100 to 1000 nM	> 5000 nM
CC[C@@]1(c2cccc(-c3ccncc3F)c2)C2=C(CC(C)(C)NC2=O)NC2N=NC(C(F)F)=C21 (stereo partly specified) [US20250313563, Compound 951599]	100 to 1000 nM	100 to 1000 nM
CC[C@@]1(c2cccc(Oc3ncccn3)c2)C2=C(CC(C)(C)NC2=O)NC2N=NC(Cl)=C21 (stereo partly specified) [US20250313563, Compound 951605]	1000 to 5000 nM	> 5000 nM
CC[C@]1(c2cccc(Oc3ncccn3)c2)C2=C(CC(C)(C)NC2=O)NC2N=NC(Cl)=C21 (stereo partly specified) [US20250313563, Compound 951606]	< 100 nM	< 100 nM and 100 to 1000 nM
CC[C@]1(c2cccc(Oc3ncccn3)c2)C2=C(CC(C)(C)NC2=O)NC2N=NC(C(F)(F)F)=C21 (stereo partly specified) [US20250313563, Compound 951607]	< 100 nM	< 100 nM and 100 to 1000 nM
